# From publication PMC10744608, “Simplified Synthesis of Renieramycin T Derivatives to Target Cancer Stem Cells via β-Catenin Proteasomal Degradation in Human Lung Cancer” (Marine Drugs, 2023)
# Assays:
# Type in all cases: cell-based, human
# [1] = system: β-catenin in A549, H23, and H292 cells; experiment: Western blot of β-catenin; details: 0–100 nM, 24 h
# Experimental: The protein expression levels in NSCLC cells were assessed through Western blot analysis. A549, H23, and H292 cells were seeded at a density of 4 × 10^5 cells per well in 6-well cell culture plates. These cells were subjected to treatments with DH_32 at concentrations of 0, 25, 50, and 100 nM for 24 h at 37 °C.
# Following treatment, the cells were collected using cold PBS and incubated on ice with a lysis buffer. The lysis buffer contained 50 mM 4-(2-hydroxyethyl)-1-piperazineethanesulfonic acid (pH 7.5), 150 mM NaCl, 5 mM EDTA, 1% Triton X-100, 1 mM phenylmethylsufonyl fluoride, and 2 μg/mL pepstatin A (cat no: 9803, Cell Signaling), along with complete protease inhibitor cocktail tablets provided in EASYpack (Roche, cat no: 04693116001). The incubation occurred for 40 min on ice, followed by centrifugation at 12,000× g at 4 °C for 15 min. Cell lysates were collected, and the protein content was quantified using the bicinchoninic acid (BCA) protein kit from Thermo-Fisher Scientific, Rockford, IL, USA. […] A chemiluminescent substrate (Supersignal West Pico; Pierce, Rockford, IL, USA) was applied to detect complex reactivity, and the signal intensity was quantified through densitometry. Protein intensity was analyzed by using ImageJ software (Image J 1.52a, Rasband, W., National Institutes of Health, Bethesda, MD, USA). […]
# H292 cells [2] = experiment: Immunoprecipitation of β-catenin–ubiquitin complex; details: H292, 50 nM, compared to cells treated with RT
# Experimental: (§1) The DH_32-treated A549, H23, and H292 cells were collected using cold PBS and incubated on ice in a lysis buffer. This buffer consisted of 50 mM 4-(2-hydroxyethyl)-1-piperazineethanesulfonic acid at pH 7.5, 150 mM NaCl, 5 mM EDTA, 1% Triton X-100, 1 mM phenylmethylsulfonyl fluoride, and 2 μg/mL pepstatin A (catalog no: 9803, Cell Signaling), along with complete protease inhibitor cocktail tablets from the EASYpack (Roche, catalog no: 04693116001). The incubation took place for 40 min on ice, followed by centrifugation at 12,000× g at 4 °C for 15 min.
# (§2) Subsequently, immunoprecipitation was carried out using the Dynabeads™ Protein G Immunoprecipitation Kit from Thermo Fisher Scientific Inc. (Waltham, MA, USA). The magnetic beads were prepared and added to 100 μL of Ab binding and washing buffer that contained β-catenin (2 μL) for 15 min on rotation at room temperature. The complex of magnetic beads and antibodies was re-suspended in a protein lysis buffer and left to incubate at 4 °C overnight, facilitating the binding of the β-catenin antigen with the magnetic bead–antibody complex. The magnetic bead–Ab–Ag complex was washed three times using 200 μL of washing buffer. The magnetic bead–antibody–antigen complex was resuspended in the lysis buffer (30 μL), and the 6x sample buffer (5 μL) was denatured by heating at 95 °C for 5 min. The antigen–antibody complex was loaded onto a 12% sodium dodecyl sulfate polyacrylamide gel electrophoresis (SDS-PAGE). Following gel separation, the proteins were transferred onto a nitrocellulose membrane with a pore size of 0.45 μm. After transfer, the membrane was placed in a mixture containing 5% nonfat dry milk in TBST (composed of 25 mm Tris-HCl, pH 7.4, 125 mm NaCl, and 0.05% Tween 20) for a duration of 1 h 30 min. Following this, the proteins were exposed to primary antibodies (Cell Signaling), specifically ubiquitin mouse mAb (cat no: 14049), and left to incubate overnight at 4 °C. […] Protein intensity was analyzed by using ImageJ software (Image J 1.52a, Rasband, W., National Institutes of Health, USA). […]
# H23 cells [3] = experiment: Immunoprecipitation of β-catenin–ubiquitin complex; details: H23, 50 nM, compared to cells treated with RT
# Experimental: as §1, §2
# A549 cells [4] = experiment: Immunoprecipitation of β-catenin–ubiquitin complex; details: A549, 50 nM, compared to cells treated with RT
# Experimental: as §1, §2
# H292 cells [5] = experiment: RT-qPCR of stemness transcription factors; details: H292, 6 h
# Experimental: (§3) RNA extraction was performed on DH_32-treated cells (3 × 10^5 cells per well in 6-well plates) using GENEzol as the reagent. Total RNA was used to synthesize cDNA through the application of SuperScript III reverse transcriptase from Invitrogen. Following cDNA synthesis, 100 ng of the cDNA was utilized for RT-qPCR, employing Luna Universal qPCR Master Mix from NEB, UK, in a final volume of 20 µL. The reaction mixture was conducted using the CFX 96 real-time PCR system from Bio-Rad, located in Hercules, CA. For the RT-qPCR, the protocol included an initial denaturation step at 95 °C for 1 min, followed by 45 cycles involving denaturation at 95 °C for 10 s, annealing and extension at 60 °C for 30 s. Melting curve analysis was employed to assess the specificity of the primers. The targeted primer genes were: The gene expression levels were normalized using the GAPDH gene as an internal control. The relative mRNA gene expression level for each gene was determined based on the comparative Cq values. RT acted as the positive control for this experiment.
# H23 cells [6] = experiment: RT-qPCR of stemness transcription factors; details: H23, 6 h
# Experimental: as §3
# A549 cells [7] = experiment: RT-qPCR of stemness transcription factors; details: A549, 50 nM, 6 h, normalized to GAPDH
# Experimental: as §3
smiles,measurement,setting,value
"COC1=C(C)C(=O)C2=C(C1=O)[C@@H]1CN(Cc3ccc4ccccc4c3)[C@@H](C#N)[C@H](C2)N1C [DH_32, (1R,4R,5S)-9-methoxy-8,11-dimethyl-3-(naphthalen-2-ylmethyl)-7,10-dioxo-1,2,3,4,5,6,7,10-octahydro-1,5-epiminobenzo[d]azocine-4-carbonitrile]",β-catenin protein level by Western blot,[1],significant decrease in the β-catenin protein level
same,increase in level of β-catenin–ubiquitin complex,H292 cells [2],3.5 fold
same,increase in level of β-catenin–ubiquitin complex,H23 cells [3],two-fold increase
same,increase in level of β-catenin–ubiquitin complex,A549 cells [4],2.5 fold
same,"mRNA of OCT4, NANOG, and SOX2",H292 cells [5],significantly decreased
same,"mRNA of OCT4, NANOG, and SOX2",H23 cells [6],significantly decreased
same,mRNA expression level of NANOG,A549 cells [7],0.4 fold
same,mRNA expression level of OCT4,A549 cells [7],0.5 fold
same,mRNA expression level of SOX2,A549 cells [7],0.3 fold
